IC50 data for 25 compounds are collected here from BindingDB's records for patent US20250230171 (Moma Therapeutics, 2025).

Usually IC50 stands for the point on the concentration scale where inhibition reaches its midpoint. Lower therefore signals inhibition by little substance.

The target of the experiment is T1, DNA polymerase theta (POLQ) (2-894).
T1 construct: 2-894
Nature of the experiment: ATPase Assay. Here is the method: POLθ-mediated ATP hydrolysis was measured using the ADP-Glo Kinase Assay (Promega Corporation, Madison, WI). Reactions were performed in white 384-well small-volume microplates (Greiner Bio-One, Frickenhausen, Germany) using a total volume of 15 μL. The ATPase reaction consisted of 1 nM biotinylated Avi-POLθ[2-894], 5 nM of a 50 nucleotide poly-thymine repeat single-stranded DNA (PolyT(50) ssDNA), and 100 μM ATP in 5 μL of assay buffer (50 mM Tris, pH 7.5, 80 mM KCl, 10 MgCl2, 1 mM DTT, 5% glycerol, 0.01% BSA, 0.01% Tween-20). Inhibition of POLΘATPase activity was determined by preparing 11-point serial dilutions of the test compounds in 100% DMSO, then transferring 30 nL of the compounds into the ATPase reaction using an Echo acoustic liquid handler (Beckman Coulter, Brea, CA). DMSO-treated wells containing either all of the reaction components (1 nM biotinylated Avi-POLθ[2-894], 5 nM PolyT(50) ssDNA, 100 μM ATP) or with assay buffer substituted for the biotinylated Avi-POLθ[2-894](0 nM biotinylated Avi-POLθ[2-894], 5 nM PolyT(50) ssDNA, 100 μM ATP) were used to define the maximum and minimum response in the assay. Following a one-hour incubation at ambient temperature, 5 μL of ADP-Glo Reagent was added to the ATPase reaction, and this mixture was allowed to incubate at ambient temperature for an additional hour. Lastly, 5 μL of Kinase Detection Reagent was added, followed by a third one-hour incubation at ambient temperature. The reagent concentrations listed represent the amounts only in the 5 μL ATPase reaction volume.
Turning to `COc1cnc(Cl)cc1-c1cc(C)ncc1C(=O)Nc1nc2c(s1)CN(C(=O)c1ccc(OC)c3cncn13)C2` [US20250230171, Compound 502], the IC50 was 8 nM.
Consider `COc1ccc(C#N)cc1-c1cc(C)ncc1C(=O)Nc1nc2c(s1)CN(C(=O)c1ccc(OC(F)F)cc1)C2` [US20250230171, Compound 503], for which 8 nM corresponded to half-maximal inhibition (IC50).
As to `COc1cnc(Cl)cc1-c1cc(C)ncc1C(=O)Nc1nc2c(s1)CN(C(=O)c1cc(Cl)cc(C)n1)C2` [US20250230171, Compound 505], the IC50 came out at 8 nM.
Then `COc1cnc(Cl)cc1-c1cc(C)ncc1C(=O)Nc1nc2c(s1)CN(S(=O)(=O)c1ccccn1)C2` [US20250230171, Compound 507], with 8 nM.
Then `COc1cnc(Cl)cc1-c1cc(C)ncc1C(=O)Nc1nc2c(s1)CN(C(=O)c1cnn(C(F)(F)F)c1)C2` [US20250230171, Compound 513], with 8 nM.
Then `COc1cnc(Cl)cc1-c1cc(C)ncc1C(=O)Nc1nc2c(s1)CN(C(=O)c1ncncc1OC)C2` [US20250230171, Compound 514], with 8 nM; and `COc1cnc(Cl)cc1-c1cc(C)ncc1C(=O)Nc1nc2c(s1)CN(C(=O)c1c(C#N)cnn1C)C2` [US20250230171, Compound 515], with 8 nM.
Take `COc1ccc(C(=O)N2Cc3nc(NC(=O)c4cnc(C)cc4-c4cc(C#N)ccc4OC)sc3C2)c(Cl)c1` [US20250230171, Compound 516]: the IC50 worked out at 8 nM.
For `COc1ccc(C#N)cc1-c1cc(C)ncc1C(=O)Nc1nc2c(s1)CN(C(=O)c1ccc(C(F)F)cc1Cl)C2` [US20250230171, Compound 519] the value was 8 nM; for `COc1cnc(Cl)cc1-c1cc(C)ncc1C(=O)Nc1nc2c(s1)CN(C(=O)c1nccnc1C)C2` [US20250230171, Compound 520], 8 nM; for `COc1cnc(Cl)cc1-c1cc(C)ncc1C(=O)Nc1nc2c(s1)CN(C(=O)c1cccnc1Cl)C2` [US20250230171, Compound 524], 8 nM.
`COc1cnc(Cl)cc1-c1cc(C)ncc1C(=O)Nc1nc2c(s1)CN(C(=O)c1cncn1C1CC1)C2` [US20250230171, Compound 527] returned an IC50 of 8 nM.
For `COc1cnc(Cl)cc1-c1cc(C)ncc1C(=O)Nc1nc2c(s1)CN(C(=O)c1nc(C)c(C)o1)C2` [US20250230171, Compound 529] the value was 8 nM; for `COc1cnc(Cl)cc1-c1cc(C)ncc1C(=O)Nc1nc2c(s1)CN(C(=O)c1cc(C)nc(C(F)F)n1)C2` [US20250230171, Compound 530], 8 nM; for `COc1cnc(Cl)cc1-c1cc(C)ncc1C(=O)Nc1nc2c(s1)CN(C(=O)c1cnc(OC)c(C(F)F)n1)C2` [US20250230171, Compound 531], 8 nM.
For `COc1cnc(Cl)cc1-c1cc(C)ncc1C(=O)Nc1nc2c(s1)CN(C(=O)C1CC3(CC(C#N)C3)C1)C2` (stereo not given) [US20250230171, Compound 532] the value was 8 nM; for `COc1cc2nn(C)cc2cc1-c1cc(C)ncc1C(=O)Nc1nc2c(s1)CN(C(=O)c1cccnc1OC)C2` [US20250230171, Compound 533], 8 nM.
On to `COc1ccc(C#N)cc1-c1cc(C)ncc1C(=O)Nc1nc2c(s1)CN(C(=O)c1cccc(C(F)F)n1)C2` [US20250230171, Compound 538], for which the IC50 is 32.5 nM.
For `COc1ncc(Cl)cc1-c1cc(C)ncc1C(=O)Nc1nc2c(s1)CN(C(=O)c1cccc(C(F)F)n1)C2` [US20250230171, Compound 539] the value was 32.5 nM; for `COc1ncc(C#N)cc1-c1cc(C)ncc1C(=O)Nc1nc2c(s1)CN(C(=O)c1ccc(C(F)F)cn1)C2` [US20250230171, Compound 540], 32.5 nM; for `COc1cnc(Cl)cc1-c1cc(C)ncc1C(=O)Nc1nc2c(s1)CN(C(=O)c1cncc(C(F)F)n1)C2` [US20250230171, Compound 541], 32.5 nM.
Then `COc1cnc(Cl)cc1-c1cc(C)ncc1C(=O)Nc1nc2c(s1)CN(C(=O)c1nc(C)cn1C)C2` [US20250230171, Compound 543], with 32.5 nM; and `COc1ccc(C(=O)N2Cc3nc(NC(=O)c4cnc(C)cc4-c4cc(Cl)ncc4OC)sc3C2)nn1` [US20250230171, Compound 545], with 32.5 nM; and `COc1cnc(Cl)cc1-c1cc(C)ncc1C(=O)Nc1nc2c(s1)CN(C(=O)c1cnc(C)n1C)C2` [US20250230171, Compound 546], with 100 nM.
In the case of `COc1cnc(Cl)cc1-c1cc(C)ncc1C(=O)Nc1nc2c(s1)CN(C(=O)c1ncc(Cl)cc1C(C)(F)F)C2` [US20250230171, Compound 595], the IC50 turned out to be 8 nM.
